Assay results reported in US20020026053A1, “Novel 3-(substituted) -2- indolinones compounds and use thereof as inhibitors of protein kinase activity” (priority 1997, published 2002).

Legend:
[1] = tested on: PDGF-R; assay: PDGF-R Assay (cellular ELISA, U1242 cells); format: cell-based; set-up: concentration or dose not given beside the values; conditions: protocol P.119
Outline: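 U1242 cells seeded in 0.5% serum, serum-starved, then exposed to compound for 2 hr at 37°C before 5–10 min ligand stimulation and lysis in HNTG. Lysate captured on receptor-antibody-coated plates; phosphotyrosine detected with polyclonal anti-pTyr, goat anti-rabbit IgG and ABTS/H2O2, A410 (ref 630 nm), versus untreated cells.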

[2] = molecular target: T1, EGFR (Homo sapiens, UniProt P00533); assay: Biochemical EGFR Assay; set-up: concentration or dose not given beside the values; conditions: protocol P.167
T1 construct: endogenous in cells; host or cells: A431 cells (lysate, captured with SUMO1 anti-EGFR antibody)
T1 sequence (P00533 25-1210): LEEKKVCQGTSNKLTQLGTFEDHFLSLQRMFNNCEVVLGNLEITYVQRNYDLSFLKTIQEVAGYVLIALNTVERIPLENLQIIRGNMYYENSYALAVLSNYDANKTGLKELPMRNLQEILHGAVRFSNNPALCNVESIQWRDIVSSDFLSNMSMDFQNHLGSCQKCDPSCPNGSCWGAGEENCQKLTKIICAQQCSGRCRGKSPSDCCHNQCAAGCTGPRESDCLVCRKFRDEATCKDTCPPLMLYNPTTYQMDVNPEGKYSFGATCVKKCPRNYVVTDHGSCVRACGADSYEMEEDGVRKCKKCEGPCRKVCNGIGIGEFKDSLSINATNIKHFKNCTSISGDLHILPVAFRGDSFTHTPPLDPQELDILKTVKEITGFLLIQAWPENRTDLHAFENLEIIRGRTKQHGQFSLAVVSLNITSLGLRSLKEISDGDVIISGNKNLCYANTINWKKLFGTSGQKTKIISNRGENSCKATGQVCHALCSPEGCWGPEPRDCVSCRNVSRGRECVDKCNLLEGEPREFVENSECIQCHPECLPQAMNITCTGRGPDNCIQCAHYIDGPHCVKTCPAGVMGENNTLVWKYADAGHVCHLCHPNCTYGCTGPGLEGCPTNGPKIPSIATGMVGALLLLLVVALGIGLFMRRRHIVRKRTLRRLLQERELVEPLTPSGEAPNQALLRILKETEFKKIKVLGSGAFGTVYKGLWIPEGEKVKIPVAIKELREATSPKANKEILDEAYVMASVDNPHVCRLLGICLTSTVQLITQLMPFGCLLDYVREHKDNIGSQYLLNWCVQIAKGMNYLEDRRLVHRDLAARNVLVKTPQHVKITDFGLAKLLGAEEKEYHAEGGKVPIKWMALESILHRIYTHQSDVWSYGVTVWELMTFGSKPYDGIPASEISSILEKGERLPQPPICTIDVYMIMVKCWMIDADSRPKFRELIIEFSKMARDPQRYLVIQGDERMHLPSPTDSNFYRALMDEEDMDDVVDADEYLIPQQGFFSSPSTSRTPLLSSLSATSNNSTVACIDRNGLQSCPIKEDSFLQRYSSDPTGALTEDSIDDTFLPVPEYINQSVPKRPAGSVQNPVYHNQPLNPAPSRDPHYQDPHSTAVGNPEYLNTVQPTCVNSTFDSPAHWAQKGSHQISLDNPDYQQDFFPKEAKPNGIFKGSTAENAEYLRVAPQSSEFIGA
Outline: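 EGFR from A431 lysate was captured on anti-EGFR-coated wells and preincubated 30 min with compound (diluted 1:10 in TBS) at room temperature. After ATP/MnCl2 phosphorylation for 5 min, the reaction was stopped with EDTA. Phosphotyrosine was detected by ELISA (anti-phosphotyrosine, peroxidase conjugate, ABTS) at 410 nm.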

Structure (SMILES) | PDGF Kinase % Inhibition (P.119) [1] | Biochem EGFR % Inhibition (P.167) [2]
Cc1c(Br)cc(Br)c2c1C(=Cc1cccc(F)c1)C(=O)N2 [10736/H07] | −21.9% | 52.2%
Cc1c(Br)cc(Br)c2c1C(=Cc1ccccc1F)C(=O)N2 [10736/H08] | −17.9% | −20.2%
CCc1ccc(C=C2C(=O)Nc3c(Br)cc(Br)c(C)c32)cc1 [10736/H09] | −14.8% | 35.7%
COc1cccc(C=C2C(=O)Nc3c(Br)cc(Br)c(C)c32)c1 [10736/H10] | −21.0% | 45.6%
Cc1c(Br)cc(Br)c2c1C(=Cc1ccccc1Cl)C(=O)N2 [10736/H11] | −12.7% | 11.1%
CCOc1ccc(C=C2C(=O)Nc3c(Br)cc(Br)cc32)cc1 [10737/A02] | 6.6% | 37.3%
Cc1ccc(C=C2C(=O)Nc3c(Br)cc(Br)cc32)c(C)c1 [10737/A03] | 38.8% | 12.8%
O=C1Nc2c(Br)cc(Br)cc2C1=Cc1cc(F)ccc1F [10737/A04] | 23.7% | 29.4%
O=C1Nc2c(Br)cc(Br)cc2C1=Cc1cccc(F)c1F [10737/A05] | 21.7% | 26.4%
COc1ccc(C=C2C(=O)Nc3c(Br)cc(Br)cc32)cc1F [10737/A06] | 15.7% | 37.3%
Cc1ccc(C)c(C=C2C(=O)Nc3c(Br)cc(Br)cc32)c1 [10737/A07] | 7.0% | 25.3%
O=C1Nc2c(Br)cc(Br)cc2C1=Cc1ccc2ccccc2c1 [10737/A08] | 1.0% | 35.8%
O=C1Nc2c(Br)cc(Br)cc2C1=Cc1ccc(Oc2ccccc2)cc1 [10737/A09] | 18.9% | 36.0%
CC(C)(C)c1ccc(Oc2cccc(C=C3C(=O)Nc4c(Br)cc(Br)cc43)c2)cc1 [10737/A10] | −3.8% | 10.9%
O=C1Nc2c(Br)cc(Br)cc2C1=Cc1cccc(Oc2cccc(C(F)(F)F)c2)c1 [10737/A11] | 28.1% | 10.8%
CCOc1ccc(C=C2C(=O)Nc3ccc(I)cc32)cc1 [10737/B02] | −28.9% | −34.0%
Cc1ccc(C=C2C(=O)Nc3ccc(I)cc32)c(C)c1 [10737/B03] | 29.7% | −34.9%
O=C1Nc2ccc(I)cc2C1=Cc1cc(F)ccc1F [10737/B04] | 12.5% | 7.1%
O=C1Nc2ccc(I)cc2C1=Cc1cccc(F)c1F [10737/B05] | 19.7% | 17.4%
COc1ccc(C=C2C(=O)Nc3ccc(I)cc32)cc1F [10737/B06] | 20.1% | 22.5%
Cc1ccc(C)c(C=C2C(=O)Nc3ccc(I)cc32)c1 [10737/B07] | 18.9% | 18.1%
O=C1Nc2ccc(I)cc2C1=Cc1ccc2ccccc2c1 [10737/B08] | −0.6% | 15.4%
O=C1Nc2ccc(I)cc2C1=Cc1ccc(Oc2ccccc2)cc1 [10737/B09] | −14.1% | 26.4%
CC(C)(C)c1ccc(Oc2cccc(C=C3C(=O)Nc4ccc(I)cc43)c2)cc1 [10737/B10] | −10.2% | −7.3%
O=C1Nc2ccc(I)cc2C1=Cc1cccc(Oc2cccc(C(F)(F)F)c2)c1 [10737/B11] | −10.2% | −9.9%

Structure (SMILES) | PDGF Kinase % Inhibition (P.119) [1] | Biochem EGFR % Inhibition (P.167) [2]
CCOc1ccc(C=C2C(=O)Nc3ccc(Br)c(C)c32)cc1 [10737/C02] | −2.2% | −22.0%
Cc1ccc(C=C2C(=O)Nc3ccc(Br)c(C)c32)c(C)c1 [10737/C03] | 7.0% | −0.7%
Cc1c(Br)ccc2c1C(=Cc1cc(F)ccc1F)C(=O)N2 [10737/C04] | 25.7% | 14.4%
Cc1c(Br)ccc2c1C(=Cc1cccc(F)c1F)C(=O)N2 [10737/C05] | 12.5% | 13.3%
COc1ccc(C=C2C(=O)Nc3ccc(Br)c(C)c32)cc1F [10737/C06] | 7.8% | 29.0%
Cc1ccc(C)c(C=C2C(=O)Nc3ccc(Br)c(C)c32)c1 [10737/C07] | 8.6% | 27.9%
Cc1c(Br)ccc2c1C(=Cc1ccc3ccccc3c1)C(=O)N2 [10737/C08] | 14.5% | 16.3%
Cc1c(Br)ccc2c1C(=Cc1ccc(Oc3ccccc3)cc1)C(=O)N2 [10737/C09] | −1.8% | 13.0%
Cc1c(Br)ccc2c1C(=Cc1cccc(Oc3ccc(C(C)(C)C)cc3)c1)C(=O)N2 [10737/C10] | 6.6% | −15.6%
Cc1c(Br)ccc2c1C(=Cc1cccc(Oc3cccc(C(F)(F)F)c3)c1)C(=O)N2 [10737/C11] | 32.5% | −5.6%
CCOc1ccc(C=C2C(=O)Nc3ccc(S(=O)(=O)NC)cc32)cc1 [10737/D02] | −4.2% | −14.7%
CNS(=O)(=O)c1ccc2c(c1)C(=Cc1ccc(C)cc1C)C(=O)N2 [10737/D03] | −5.8% | −21.5%
CNS(=O)(=O)c1ccc2c(c1)C(=Cc1cc(F)ccc1F)C(=O)N2 [10737/D04] | 9.4% | −27.7%
CNS(=O)(=O)c1ccc2c(c1)C(=Cc1cccc(F)c1F)C(=O)N2 [10737/D05] | 2.2% | 17.9%
CNS(=O)(=O)c1ccc2c(c1)C(=Cc1ccc(OC)c(F)c1)C(=O)N2 [10737/D06] | −10.2% | 33.8%
CNS(=O)(=O)c1ccc2c(c1)C(=Cc1cc(C)ccc1C)C(=O)N2 [10737/D07] | −5.0% | 16.1%
CNS(=O)(=O)c1ccc2c(c1)C(=Cc1ccc3ccccc3c1)C(=O)N2 [10737/D08] | 3.0% | 5.6%
CNS(=O)(=O)c1ccc2c(c1)C(=Cc1ccc(Oc3ccccc3)cc1)C(=O)N2 [10737/D09] | 1.0% | 13.7%
CNS(=O)(=O)c1ccc2c(c1)C(=Cc1cccc(Oc3ccc(C(C)(C)C)cc3)c1)C(=O)N2 [10737/D10] | 7.0% | −15.0%
CNS(=O)(=O)c1ccc2c(c1)C(=Cc1cccc(Oc3cccc(C(F)(F)F)c3)c1)C(=O)N2 [10737/D11] | 5.4% | −2.3%
CCOc1ccc(C=C2C(=O)Nc3ccc(S(=O)(=O)Nc4ccc(C(F)(F)F)cc4)cc32)cc1 [10737/E02] | 12.9% | 6.7%
Cc1ccc(C=C2C(=O)Nc3ccc(S(=O)(=O)Nc4ccc(C(F)(F)F)cc4)cc32)c(C)c1 [10737/E03] | 39.2% | −4.5%
O=C1Nc2ccc(S(=O)(=O)Nc3ccc(C(F)(F)F)cc3)cc2C1=Cc1cc(F)ccc1F [10737/E04] | 29.7% | 15.4%
O=C1Nc2ccc(S(=O)(=O)Nc3ccc(C(F)(F)F)cc3)cc2C1=Cc1cccc(F)c1F [10737/E05] | 33.3% | −8.6%
